Assay results as given in EP0897923A1, “BENZOQUINOLIZINE DERIVATIVES AND MEDICINAL COMPOSITIONS” (priority 1996, dated 1997).
Marks after values point to notes of the source that are not given here.

What was measured:
Assay type in all cases: in vivo
[1] = system: SD rats; experiment: Effect on an IBS model (3): water avoidance stress, number of fecal pellets, oral administration; conditions: number of fecal pellets in one hour, male SD rats
Experimental: Six-week-old male SD rats were used in groups of 8 individuals. In accordance with the method of Enck et al. (Gut, 1989; 30:455-459), animals in the control group and treatment groups were loaded with water avoidance stress, while those in the normal groups were not loaded and the number of fecal pellets during the subsequent one-hour period was determined. In the treatment groups, a predetermined dose of the corresponding test drug was administered orally 60 minutes before stress loading. As reference control drugs, Compound A and Compound B mentioned above were used. The inhibition rate (%) was calculated by means of the following equation. Inhibition rate (%) = [(NC-ND)/(NC-NN)] x 100 [formula] where NC represents the number of the fecal pellets in the control group, ND represents the number of the fecal pellets in the treatment group, and NN represents the number of the fecal pellets in the normal group. Statistical significance of the treatment group versus the control group was tested by Dunnett's multiple comparison.

[2] = system: SD rats; experiment: Effect on an IBS model (2): wrap-restraint stress, weight of fecal pellets, oral administration; conditions: for Inhibition (%) vs. control: weight of fecal pellets in one hour, male SD rats; for defecation accelerated by stress: result in words, summary of Test Examples 2 and 3, oral dose levels 10 and 30 mg/kg
Experimental: Six-week-old male SD rats, non-fasted, were used in groups of 8 individuals. In accordance with the method of Williams et al. (Gastroenterology, 1988; 94:611-621), animals in the control group and treatment groups were loaded with a wrap-restraint stress while those in the normal group were not loaded and weight (g) of the fecal pellets in the subsequent one-hour period was determined. In the treatment groups, a predetermined dose of the corresponding test drug was administered orally 60 minutes before stress loading. As reference control drugs, N-methyl-N-[(2RS,11bSR)-1,3,4,6,7,11b-hexahydro-2H-benzo[a]quinolizin-2-yl]propanesulfonamide hydrochloride (hereinafter referred to as Compound A) and N-(2-methanesulfonamidoethyl)-N-[(2RS,11bSR)-1,3,4,6,7,11b-hexahydro-2H-benzo[a]quinolizin-2-yl]benzenesulfonamide hydrochloride (hereinafter referred to as compound B), both of which are described in Japanese Laid-open S62-67031 as having gastrointestinal peristalsis-modulating activity were used. The inhibition rate (%) was calculated by means of the following equation. Inhibition rate = [(C-D)/(C-N)] x 100 [formula] where C represents the weight of the fecal pellets in the control group, D represents the weight of the fecal pellets in the treatment group, and N represents the weight of the fecal pellets in the normal group. Statistical significance of the treatment group versus the control group was tested by Dunnett's multiple comparison.

[3] = system: ddY mice; experiment: Acute toxicity test; conditions: fasted male ddY mice, deaths during one week
Experimental: Six-week-old male ddY mice were used in groups of 5 individuals. The animals were fasted from the previous day (16-18 hours before the experiment) and a predetermined dose of the compound of the invention was administered orally. The number of deaths during the subsequent one-week period was investigated.

[4] = system: SD rats; experiment: Effect on an IBS model (1): wrap-restraint stress, weight of fecal pellets, subcutaneous administration; conditions: 3 mg/kg subcutaneously 30 minutes before wrap-restraint stress, weight of fecal pellets in one hour, male SD rats
Experimental: Six-week-old male SD rats, non-fasted, were used in groups of 8 individuals. In accordance with the method of Williams et al. (Gastroenterology, 1988; 94:611-621), animals in the control group and treatment groups were loaded with a wrap-restraint stress while those in the normal group were not loaded and weight (g) of fecal pellets in the subsequent one-hour period was determined. In the treatment groups, a predetermined dose of the corresponding test drug was administered subcutaneously 30 minutes before stress loading. The inhibition rate (%) was calculated by means of the following equation. Inhibition rate = [(C-D)/(C-N)] x 100 [formula] where C represents the weight of the fecal pellets in the control group, D represents the weight of the fecal pellets in the treatment group, and N represents the weight of the fecal pellets in the normal group. Statistical significance of the treatment group versus the control group was tested by Dunnett's multiple comparison.

[5] = 30 mg/kg orally 60 minutes before water avoidance stress
[6] = 10 mg/kg orally 60 minutes before wrap-restraint stress
[7] = 30 mg/kg orally 60 minutes before wrap-restraint stress
[8] = 10 mg/kg orally 60 minutes before wrap-restraint stress, hydrochloride

## CCCS(=O)(=O)N(C)[C@@H]1CCN2CCc3ccccc3[C@@H]2C1.Cl (racemic) [Compound A, N-methyl-N-[(2RS,11bSR)-1,3,4,6,7,11b-hexahydro-2H-benzo[a]quinolizin-2-yl]propanesulfonamide hydrochloride, reference compound]
[1]; [5]
  Inhibition (%) vs. control: -20.7%
[2]; [6]
  Inhibition (%) vs. control: -1.2%
[2]; [7]
  Inhibition (%) vs. control: 1.4%
[2]
  defecation accelerated by stress: did not inhibit defecation accelerated by stress

## CS(=O)(=O)NCCN([C@@H]1CCN2CCc3ccccc3[C@@H]2C1)S(=O)(=O)c1ccccc1.Cl (racemic) [Compound B, N-(2-methanesulfonamidoethyl)-N-[(2RS,11bSR)-1,3,4,6,7,11b-hexahydro-2H-benzo[a]quinolizin-2-yl]benzenesulfonamide hydrochloride, reference compound]
[1]; [5]
  Inhibition (%) vs. control: -58.3%
[2]; [6]
  Inhibition (%) vs. control: -4.7%
[2]; [7]
  Inhibition (%) vs. control: -30.0%
[2]
  defecation accelerated by stress: did not inhibit defecation accelerated by stress

## COc1ccc2c(c1)CCN1CC[C@@H](N(C)S(C)(=O)=O)C[C@@H]21.Cl (racemic) [Compound No. 1, N-Methyl-N-[(2RS,11bSR)-9-methoxy-1,3,4,6,7,11b-hexahydro-2H-benzo[a]quinolizin-2-yl]methanesulfonamide hydrochloride]
[1]; [5]
  Inhibition (%) vs. control: 81.8* %
[3]; 100 mg/kg orally
  Dead/Total: 0/5
[4]; hydrochloride
  Inhibition (%) vs. control: 97.7** %
[2]; [8]
  Inhibition (%) vs. control: 53.2* %
[2]; [7]
  Inhibition (%) vs. control: 96.6** %

## COc1ccc(S(=O)(=O)N(C)[C@@H]2CCN3CCc4cc(OC)ccc4[C@@H]3C2)cc1.Cl (racemic) [Compound No. 6, N-Methyl-N-[(2RS,11bSR)-9-methoxy-1,3,4,6,7,11b-hexahydro-2H-benzo[a]quinolizin-2-yl]-4-methoxybenzenesulfonamide hydrochloride]
[3]; 100 mg/kg orally
  Dead/Total: 0/5
[4]
  Inhibition (%) vs. control: 86.2** %

## COc1ccc2c(c1)CCN1CC[C@@H](N(C)S(=O)(=O)c3ccccc3)C[C@@H]21.Cl (racemic) [Compound No. 7, N-methyl-N-[(2RS,11bSR)-9-methoxy-1,3,4,6,7,11b-hexahydro-2H-benzo[a]quinolizin-2-yl]benzenesulfonamide hydrochloride]
[4]
  Inhibition (%) vs. control: 76.6** %

## COc1ccc2c(c1)CCN1CC[C@@H](N(C)S(=O)(=O)c3ccc(F)cc3)C[C@@H]21.Cl (racemic) [Compound No. 13, N-methyl-N-[(2RS,11bSR)-9-methoxy-1,3,4,6,7,11b-hexahydro-2H-benzo[a]quinolizin-2-yl]-4-fluorobenzenesulfonamide hydrochloride]
[4]
  Inhibition (%) vs. control: 72.4** %

## COc1ccc2c(c1)CCN1CC[C@@H](N(C)S(=O)(=O)c3cc(OC)ccc3OC)C[C@@H]21.Cl (racemic) [Compound No. 14, N-methyl-N-[(2RS,11bSR)-9-methoxy-1,3,4,6,7,11b-hexahydro-2H-benzo[a]quinolizin-2-yl]-2,5-dimethoxybenzenesulfonamide hydrochloride]
[4]
  Inhibition (%) vs. control: 75.6** %

## COc1ccc2c(c1)CCN1CC[C@@H](N(C)S(=O)(=O)N(C)C)C[C@@H]21.Cl (racemic) [Compound No. 16, N,N-Dimethyl-N'-[(2RS-11bSR)-9-methoxy-1,3,4,6,7,11b-hexahydro-2H-benzo[a]quinolizin-2-yl]-N'-methylsulfamide hydrochloride]
[3]; 300 mg/kg orally
  Dead/Total: 0/5
[2]; [6]
  Inhibition (%) vs. control: 73.3** %
[2]; [7]
  Inhibition (%) vs. control: 91.7** %

## COc1ccc2c(c1)CCN1CC[C@@H](N(C)S(C)(=O)=O)C[C@@H]21.Cl [Compound No. 18, N-Methyl-N-[(2R,11bS)-9-methoxy-1,3,4,6,7,11b-hexahydro-2H-benzo[a]quinolizin-2-yl]methanesulfonamide hydrochloride]
[1]; 3 mg/kg orally 60 minutes before water avoidance stress
  Inhibition (%) vs. control: 72.4* %
[1]; 10 mg/kg orally 60 minutes before water avoidance stress
  Inhibition (%) vs. control: 82.9** %
[3]; 250 mg/kg orally
  Dead/Total: 0/5
[4]; hydrochloride
  Inhibition (%) vs. control: 96.6** %
[2]; [8]
  Inhibition (%) vs. control: 91.1** %

## CCS(=O)(=O)N(C)[C@@H]1CCN2CCc3cc(OC)ccc3[C@@H]2C1.Cl [Compound No. 20, N-Methyl-N-[(2R,11bS)-9-methoxy-1,3,4,6,7,11b-hexahydro-2H-benzo[a]quinolizin-2-yl]ethanesulfonamide hydrochloride]
[2]; [6]
  Inhibition (%) vs. control: 69.4** %
[2]; [7]
  Inhibition (%) vs. control: 88.9** %

## CCN([C@@H]1CCN2CCc3cc(OC)ccc3[C@@H]2C1)S(C)(=O)=O.Cl [Compound No. 21, N-Ethyl-N-[(2R,11bS)-9-methoxy-1,3,4,6,7,11b-hexahydro-2H-benzo[a]quinolizin-2-yl]methanesulfonamide hydrochloride]
[3]; 250 mg/kg orally
  Dead/Total: 0/5
[2]; [6]
  Inhibition (%) vs. control: 64.6** %
[2]; [7]
  Inhibition (%) vs. control: 92.6** %
